Measurements taken from patent publication US20220009920A1 (GB005, Inc., priority 2020, published 2022).

Assays:
Assay in all cases: Large panel kinase profiling
Format in all cases: biochemical
Conditions in all cases: 1 μM test article, 1 mM ATP
CSNK1E/CK1E = target: T1, CSNK1E/CK1E (Homo sapiens, UniProt P49674)
T1 construct: AssayQuant Technologies, Inc. (service laboratory)
In short: (§1)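 CSox-Sensor fluorescence readout; test article 1 μM, ATP 1 mM, 30° C.; kinetic reads at 1-min intervals, Ex 360/Em 485 nm.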

DAPK3 = target: T2, DAPK3 (Homo sapiens, UniProt O43293)
T2 construct: AssayQuant Technologies, Inc. (service laboratory)
T2 sequence (O43293 whole entry, species assumed): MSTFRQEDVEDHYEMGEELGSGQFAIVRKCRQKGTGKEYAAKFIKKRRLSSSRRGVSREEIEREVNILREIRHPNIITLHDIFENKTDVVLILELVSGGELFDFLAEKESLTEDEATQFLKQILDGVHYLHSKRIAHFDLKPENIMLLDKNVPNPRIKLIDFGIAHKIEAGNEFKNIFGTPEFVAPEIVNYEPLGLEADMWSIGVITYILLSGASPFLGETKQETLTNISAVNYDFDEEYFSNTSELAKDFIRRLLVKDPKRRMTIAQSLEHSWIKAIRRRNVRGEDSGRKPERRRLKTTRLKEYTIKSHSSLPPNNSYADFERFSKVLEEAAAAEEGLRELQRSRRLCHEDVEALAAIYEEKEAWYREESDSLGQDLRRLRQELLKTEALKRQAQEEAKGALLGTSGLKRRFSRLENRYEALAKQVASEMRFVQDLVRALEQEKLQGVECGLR
In short: as §1

FGFR3 = FGFR3 (Homo sapiens, UniProt P22607)
Chain of FGFR3 (P22607 23-806, species assumed): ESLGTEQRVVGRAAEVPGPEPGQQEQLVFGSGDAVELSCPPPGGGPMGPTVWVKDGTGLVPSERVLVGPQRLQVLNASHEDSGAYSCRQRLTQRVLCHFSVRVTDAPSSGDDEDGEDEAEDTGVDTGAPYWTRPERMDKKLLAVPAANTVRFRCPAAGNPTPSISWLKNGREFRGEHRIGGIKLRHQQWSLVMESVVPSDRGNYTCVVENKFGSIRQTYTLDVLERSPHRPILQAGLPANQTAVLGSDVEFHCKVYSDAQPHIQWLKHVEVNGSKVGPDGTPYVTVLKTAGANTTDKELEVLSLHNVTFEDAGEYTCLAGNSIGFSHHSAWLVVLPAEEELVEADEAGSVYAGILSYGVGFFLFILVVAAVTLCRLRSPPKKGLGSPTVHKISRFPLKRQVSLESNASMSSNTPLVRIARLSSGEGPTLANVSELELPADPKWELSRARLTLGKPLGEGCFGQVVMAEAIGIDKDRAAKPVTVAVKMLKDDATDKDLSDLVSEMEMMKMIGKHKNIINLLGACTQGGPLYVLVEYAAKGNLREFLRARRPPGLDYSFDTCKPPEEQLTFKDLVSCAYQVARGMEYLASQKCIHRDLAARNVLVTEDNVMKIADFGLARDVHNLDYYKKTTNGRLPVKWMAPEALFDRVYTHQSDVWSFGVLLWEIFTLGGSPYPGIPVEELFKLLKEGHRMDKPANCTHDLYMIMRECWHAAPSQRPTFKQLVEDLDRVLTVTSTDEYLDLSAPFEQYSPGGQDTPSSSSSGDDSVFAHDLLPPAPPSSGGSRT
In short: as §1

MARK2 = target: T3, MARK2 (Homo sapiens, UniProt Q7KZI7)
T3 construct: AssayQuant Technologies, Inc. (assay service)
T3 sequence (Q7KZI7 whole entry, species assumed): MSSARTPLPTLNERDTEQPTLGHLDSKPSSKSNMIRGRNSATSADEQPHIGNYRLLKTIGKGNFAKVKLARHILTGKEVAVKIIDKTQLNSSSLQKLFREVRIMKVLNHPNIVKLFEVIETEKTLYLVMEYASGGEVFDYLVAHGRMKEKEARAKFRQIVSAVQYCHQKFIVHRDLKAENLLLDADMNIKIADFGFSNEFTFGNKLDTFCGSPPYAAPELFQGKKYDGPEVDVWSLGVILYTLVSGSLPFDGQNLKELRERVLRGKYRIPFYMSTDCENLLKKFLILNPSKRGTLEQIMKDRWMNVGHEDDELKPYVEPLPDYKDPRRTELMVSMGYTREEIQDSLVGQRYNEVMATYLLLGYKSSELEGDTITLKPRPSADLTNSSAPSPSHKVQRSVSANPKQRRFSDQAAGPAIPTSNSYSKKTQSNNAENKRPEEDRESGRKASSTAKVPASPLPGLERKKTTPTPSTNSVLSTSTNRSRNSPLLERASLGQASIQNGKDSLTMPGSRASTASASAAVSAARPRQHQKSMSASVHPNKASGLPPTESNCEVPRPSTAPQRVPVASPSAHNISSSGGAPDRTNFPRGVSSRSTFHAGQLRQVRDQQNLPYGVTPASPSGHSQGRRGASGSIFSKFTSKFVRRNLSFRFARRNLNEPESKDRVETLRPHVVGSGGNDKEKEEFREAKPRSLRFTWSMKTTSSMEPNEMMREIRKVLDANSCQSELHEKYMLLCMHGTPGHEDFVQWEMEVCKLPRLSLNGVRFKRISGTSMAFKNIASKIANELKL
In short: as §1

NEK1 = target: T4, NEK1 (Homo sapiens, UniProt Q96PY6)
T4 construct: AssayQuant Technologies, Inc. (assay service)
T4 sequence (Q96PY6 1-1258): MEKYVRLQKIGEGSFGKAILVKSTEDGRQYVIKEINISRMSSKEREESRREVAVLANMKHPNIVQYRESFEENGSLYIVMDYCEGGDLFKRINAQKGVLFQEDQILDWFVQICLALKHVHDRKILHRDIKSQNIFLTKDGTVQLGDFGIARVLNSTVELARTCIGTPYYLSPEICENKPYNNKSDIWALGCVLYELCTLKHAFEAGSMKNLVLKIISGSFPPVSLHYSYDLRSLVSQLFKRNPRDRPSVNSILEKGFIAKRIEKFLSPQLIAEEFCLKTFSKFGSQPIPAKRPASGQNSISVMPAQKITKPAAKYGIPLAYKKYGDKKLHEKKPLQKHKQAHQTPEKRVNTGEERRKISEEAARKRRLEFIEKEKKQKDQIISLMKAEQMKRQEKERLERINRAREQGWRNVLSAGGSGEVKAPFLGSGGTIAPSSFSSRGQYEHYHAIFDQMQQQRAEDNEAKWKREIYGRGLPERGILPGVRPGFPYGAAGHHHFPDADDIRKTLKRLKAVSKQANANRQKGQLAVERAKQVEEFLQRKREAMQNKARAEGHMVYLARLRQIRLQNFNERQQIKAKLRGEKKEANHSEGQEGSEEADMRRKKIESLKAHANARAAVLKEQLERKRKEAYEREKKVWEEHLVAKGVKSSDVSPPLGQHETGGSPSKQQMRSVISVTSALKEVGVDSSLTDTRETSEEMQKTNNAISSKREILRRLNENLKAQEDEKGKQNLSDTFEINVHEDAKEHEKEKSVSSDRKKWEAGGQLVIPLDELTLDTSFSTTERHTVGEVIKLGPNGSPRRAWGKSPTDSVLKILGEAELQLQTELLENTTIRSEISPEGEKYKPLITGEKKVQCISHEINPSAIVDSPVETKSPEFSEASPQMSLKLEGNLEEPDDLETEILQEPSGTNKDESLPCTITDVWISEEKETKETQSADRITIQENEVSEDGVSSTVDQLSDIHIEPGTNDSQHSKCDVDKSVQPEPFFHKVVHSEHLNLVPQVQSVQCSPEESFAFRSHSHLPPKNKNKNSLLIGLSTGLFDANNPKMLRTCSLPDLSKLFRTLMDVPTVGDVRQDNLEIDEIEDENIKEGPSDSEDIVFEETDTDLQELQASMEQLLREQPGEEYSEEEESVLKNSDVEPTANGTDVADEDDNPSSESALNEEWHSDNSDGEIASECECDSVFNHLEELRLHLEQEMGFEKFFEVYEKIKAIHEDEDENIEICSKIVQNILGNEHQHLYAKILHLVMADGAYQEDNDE
In short: as §1

NTRK2/TRKB = target: T5, NTRK2/TRKB (Homo sapiens, UniProt Q16620)
T5 construct: AssayQuant Technologies, Inc. (assay service)
T5 sequence (Q16620 32-822): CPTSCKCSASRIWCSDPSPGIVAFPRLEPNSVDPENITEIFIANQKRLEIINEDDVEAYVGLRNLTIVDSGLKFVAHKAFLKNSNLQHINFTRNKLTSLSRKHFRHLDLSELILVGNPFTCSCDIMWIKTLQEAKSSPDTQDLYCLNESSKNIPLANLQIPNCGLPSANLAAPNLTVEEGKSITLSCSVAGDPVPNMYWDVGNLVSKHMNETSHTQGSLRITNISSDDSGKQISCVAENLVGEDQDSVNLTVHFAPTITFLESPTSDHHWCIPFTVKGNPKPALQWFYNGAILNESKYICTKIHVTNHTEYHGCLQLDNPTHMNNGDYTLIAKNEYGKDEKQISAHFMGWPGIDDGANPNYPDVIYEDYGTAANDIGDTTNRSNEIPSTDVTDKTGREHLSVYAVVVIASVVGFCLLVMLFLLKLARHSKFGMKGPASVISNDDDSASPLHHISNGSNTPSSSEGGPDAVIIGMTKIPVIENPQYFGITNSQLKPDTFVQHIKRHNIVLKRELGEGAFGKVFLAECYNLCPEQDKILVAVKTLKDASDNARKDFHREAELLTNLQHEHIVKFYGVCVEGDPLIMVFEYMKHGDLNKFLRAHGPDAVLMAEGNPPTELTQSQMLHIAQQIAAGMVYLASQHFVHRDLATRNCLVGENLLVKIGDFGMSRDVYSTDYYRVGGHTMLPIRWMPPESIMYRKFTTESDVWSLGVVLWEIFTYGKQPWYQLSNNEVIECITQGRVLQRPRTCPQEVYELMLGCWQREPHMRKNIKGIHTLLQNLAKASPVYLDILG
In short: as §1

PRKCB2/PKCB2 = PRKCB2/PKCB2 (Homo sapiens, UniProt P05771)
Chain of PRKCB2/PKCB2 (P05771 1-673 isoform P05771-2): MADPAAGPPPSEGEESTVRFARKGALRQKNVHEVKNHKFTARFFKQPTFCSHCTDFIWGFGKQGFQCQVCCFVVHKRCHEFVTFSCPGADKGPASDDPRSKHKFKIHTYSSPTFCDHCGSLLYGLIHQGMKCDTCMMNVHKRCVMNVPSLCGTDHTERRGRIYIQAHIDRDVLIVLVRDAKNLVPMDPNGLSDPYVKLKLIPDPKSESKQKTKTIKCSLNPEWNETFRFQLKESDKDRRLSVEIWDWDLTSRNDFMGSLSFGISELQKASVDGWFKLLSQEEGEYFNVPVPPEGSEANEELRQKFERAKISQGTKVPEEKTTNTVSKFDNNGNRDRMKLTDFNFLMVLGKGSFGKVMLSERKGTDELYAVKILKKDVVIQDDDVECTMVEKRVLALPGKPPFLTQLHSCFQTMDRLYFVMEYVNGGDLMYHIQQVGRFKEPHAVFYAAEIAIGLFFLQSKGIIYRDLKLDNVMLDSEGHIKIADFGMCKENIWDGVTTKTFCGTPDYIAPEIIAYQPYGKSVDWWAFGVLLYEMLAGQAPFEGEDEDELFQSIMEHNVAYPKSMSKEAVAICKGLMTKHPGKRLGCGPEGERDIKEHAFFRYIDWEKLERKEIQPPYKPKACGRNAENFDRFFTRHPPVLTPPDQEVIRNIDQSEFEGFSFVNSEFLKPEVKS
In short: as §1

TAOK3 = target: T6, TAOK3 (Homo sapiens, UniProt Q9H2K8)
T6 construct: AssayQuant Technologies, Inc. (contract assay)
T6 sequence (Q9H2K8 1-898): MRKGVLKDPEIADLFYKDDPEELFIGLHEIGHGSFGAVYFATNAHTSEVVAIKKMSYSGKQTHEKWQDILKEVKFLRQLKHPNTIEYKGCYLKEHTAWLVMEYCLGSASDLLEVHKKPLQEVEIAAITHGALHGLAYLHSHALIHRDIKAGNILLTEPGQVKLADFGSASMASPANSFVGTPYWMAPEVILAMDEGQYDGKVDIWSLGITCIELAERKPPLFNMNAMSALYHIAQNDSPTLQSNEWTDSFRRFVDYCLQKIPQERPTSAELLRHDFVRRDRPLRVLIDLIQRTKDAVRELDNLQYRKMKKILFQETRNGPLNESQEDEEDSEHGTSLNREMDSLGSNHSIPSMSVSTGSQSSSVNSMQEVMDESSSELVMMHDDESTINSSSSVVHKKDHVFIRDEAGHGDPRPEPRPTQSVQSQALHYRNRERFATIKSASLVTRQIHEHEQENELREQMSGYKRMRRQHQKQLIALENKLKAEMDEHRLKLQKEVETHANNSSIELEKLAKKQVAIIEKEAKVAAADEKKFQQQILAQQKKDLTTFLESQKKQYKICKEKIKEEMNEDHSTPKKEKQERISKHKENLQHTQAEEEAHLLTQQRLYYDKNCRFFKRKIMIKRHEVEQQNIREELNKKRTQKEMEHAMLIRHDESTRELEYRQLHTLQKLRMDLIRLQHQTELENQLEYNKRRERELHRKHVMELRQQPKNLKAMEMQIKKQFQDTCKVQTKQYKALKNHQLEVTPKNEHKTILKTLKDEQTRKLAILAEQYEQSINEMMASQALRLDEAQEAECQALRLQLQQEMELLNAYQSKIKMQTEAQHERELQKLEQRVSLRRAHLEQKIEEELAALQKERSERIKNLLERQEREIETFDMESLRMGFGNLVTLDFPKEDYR
In short: as §1

T1 sequence (P49674 whole entry): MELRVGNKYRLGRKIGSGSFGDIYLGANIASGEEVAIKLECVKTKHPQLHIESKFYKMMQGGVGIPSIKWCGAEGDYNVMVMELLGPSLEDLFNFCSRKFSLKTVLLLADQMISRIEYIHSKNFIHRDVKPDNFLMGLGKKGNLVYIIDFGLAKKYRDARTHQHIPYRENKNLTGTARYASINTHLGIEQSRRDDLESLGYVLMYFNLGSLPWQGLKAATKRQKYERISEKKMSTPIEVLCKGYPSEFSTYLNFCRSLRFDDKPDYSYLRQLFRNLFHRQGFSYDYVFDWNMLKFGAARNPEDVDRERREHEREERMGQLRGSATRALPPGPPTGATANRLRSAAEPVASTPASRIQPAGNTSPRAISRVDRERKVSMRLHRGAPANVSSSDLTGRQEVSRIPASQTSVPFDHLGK

**Q.** How did the inhibition at 1 µM (CSNK1E/CK1E) turn out when `C=CC(=O)N1CCCC(c2c(F)cc(C(N)=O)c3[nH]c4c(c23)CCCCC4)C1` (single isomer, unassigned) [Compound 5-6] was run?
**A.** -4.2%

**Q.** What about the inhibition at 1 µM (DAPK3) of the same compound?
**A.** 25.9%

**Q.** What about the inhibition at 1 µM (FGFR3) of the same compound?
**A.** 24.2%

**Q.** And the inhibition at 1 µM (MARK2)?
**A.** 11.8%

**Q.** What about the inhibition at 1 µM (NEK1) of the same compound?
**A.** -3.1%

**Q.** And the inhibition at 1 µM (NTRK2/TRKB)?
**A.** -20.9%

**Q.** What about the inhibition at 1 µM (PRKCB2/PKCB2) of the same compound?
**A.** -32.3%

**Q.** And the inhibition at 1 µM (TAOK3)?
**A.** 14.1%

**Q.** Which inhibition at 1 µM (CSNK1E/CK1E) does the source give for `C=CC(=O)N1CCC[C@@H](c2c(F)cc(C(N)=O)c3[nH]c4c(c23)CC2(CC4)CC2)C1` [Compound 6-2, (S)-5-(1-acryloylpiperidin-3-yl)-6-fluoro-1,2,4,9-tetrahydrospiro[carbazole-3,1′-cyclopropane]-8-carboxamide] here?
**A.** -7.4%

**Q.** What about the inhibition at 1 µM (DAPK3) of the same compound?
**A.** 10%

**Q.** And the inhibition at 1 µM (FGFR3)?
**A.** 10.5%

**Q.** What about the inhibition at 1 µM (MARK2) of the same compound?
**A.** -33.3%

**Q.** And the inhibition at 1 µM (NEK1)?
**A.** 7.9%

**Q.** What about the inhibition at 1 µM (NTRK2/TRKB) of the same compound?
**A.** 13.1%

**Q.** What about the inhibition at 1 µM (PRKCB2/PKCB2) of the same compound?
**A.** -9.4%

**Q.** What about the inhibition at 1 µM (TAOK3) of the same compound?
**A.** 1.6%

**Q.** Which results are given for `C=CC(=O)N1CCC[C@@H](c2c(F)cc(C(N)=O)c3[nH]c4c(c23)CCC4)C1` [Compound 10-2, (S)-8-(1-acryloylpiperidin-3-yl)-7-fluoro-1,2,3,4-tetrahydrocyclo-penta[b]indole-5-carboxamide]?
**A.** inhibition at 1 µM (CSNK1E/CK1E): 15.1%; inhibition at 1 µM (DAPK3): -4.9%; inhibition at 1 µM (FGFR3): 18.3%; inhibition at 1 µM (MARK2): -8.8%; inhibition at 1 µM (NEK1): 11.8%; inhibition at 1 µM (NTRK2/TRKB): 19.7%; inhibition at 1 µM (PRKCB2/PKCB2): -28.2%; inhibition at 1 µM (TAOK3): -2.9%
